“Also recorded” adds a separate entry of the source.
Experiments:
[1] = system: mitochondrial network in hiPSCs; test: Network reachability: random walk / material diffusion simulation on tracked temporal mitochondrial networks; format: cell-based, human; conditions: drug-treated, control 0.18
Protocol: To quantify transport across the 4D mitochondrial network, a random walk on the tracked temporal mitochondrial networks was simulated and the process was measured in the form of network reachability (see “Material diffusion simulation on temporal mitochondrial networks”). Reachability for a node indicates how easily can material/information reach this node from various parts of the overall network, via the time respecting paths defined by the network tracking.
Diffusion simulation was used on temporal dynamic mitochondrial network to understand the flow of material in mitochondrial networks. To calculate global reachability, we initiate a virtual token at every node of the mitochondrial network at the first timestep. Each token is labeled by the source node from which it originated. At every timestep, each node duplicates the tokens it currently has, and transfers them to the connected neighbors. At the end of the simulation, the global reachability for each node is quantified by the number of unique tokens at that node, corresponding to the number of source nodes this node can reach.
FIGS. 25A and 25B illustrate schematics for material diffusion simulation on temporal network. FIG. 25A illustrates the global reachability simulation. From each node, material can diffuse into the neighboring nodes or stay in the source node. All possible diffusion pathways over time are marked with an arrow. Time is depicted from left to right. Arrows in different thicknesses 2502, 2504, 2506, 2508, 2510, 2512 indicate representative simulation scenarios. After four timesteps, the target node labeled with X has accumulated three tokens (through the transport arrows). FIG. 25B illustrates the calculation for betweenness centrality used for determining the central nodes.
Drug Treatments: All drugs were dissolved in DMSO to make a stock solution and diluted in PBS to prepare a 100× working stock. Cells were treated with oligomycin (20 μM, 2 hr), nocodazole (5 uM, 30 min), and MDIVI-1 (10 μM, 12 hr) without wash. […]

[2] = system: mitochondrial network in hiPSCs; test: Mitochondrial temporal network remodeling (mean degree difference, temporal intersection) from MitoTNT 4D tracking of LLSM data; format: cell-based, human; conditions: drug-treated; for mean degree difference (DD): control DD 0.28, low DD = little remodeling; for temporal intersection (TI): control TI 0.58, low TI = drastic remodeling
Protocol: To quantify mitochondrial network remodeling, the mean degree difference (DD) and the temporal intersection (TI) were calculated. A low DD indicates a low rate of nodes breaking off from their neighbors and reconnecting with other nodes. Inversely, a low TI implies that the network is very dynamic and does undergo drastic remodeling. […] In contrast, when treated with oligomycin, it was observed a 0.52 DD and 0.44 TI indicating a high level of network remodeling. Cytoskeleton influences drive network remodeling events were hypothesized.
Human induced pluripotent stem cell (hiPSC) culture: All studies involving hiPSCs were performed under approval from the University of California San Diego IRB/ESCRO committee. WTC hiPSCs expressing the CAAX domain of K-ras tagged with m TagRFP-T were created at the Allen Institute for Cell Science and obtained through the UCB Cell Culture Facility. hiPSC colonies were expanded on dishes coated with growth factor reduced Matrigel (Corning, 354230) in mTeSR1 (Stemcell Technologies, 85850) containing 1% penicillin/streptomycin (Gibco, 15140122). Colonies were washed with DPBS (Gibco, 14190144) and detached with accutase (Stemcell Technologies, 07920) before plating onto imaging dishes. Cultures were tested routinely for mycoplasma.
Drug Treatments: All drugs were dissolved in DMSO to make a stock solution and diluted in PBS to prepare a 100× working stock. Cells were treated with oligomycin (20 μM, 2 hr), nocodazole (5 uM, 30 min), and MDIVI-1 (10 μM, 12 hr) without wash.
Live cell imaging: 371 CAAX-RFPhiPSCs were stained with 100 nM Mito Tracker Green FM (Invitrogen, M7514) for 30 min prior to imaging. Cells were plated onto 25 mm MatTek dishes and imaged in phenol-red free mTeSR1 (Stemcell Technologies, 85850). Cells were kept under 5% CO2 and 37 degrees C. For imaging, Zeiss LLSM 7 was used with 10×N.A. 0.4 illumination objective lens and 48×375 N.A. 1.0 detection objective lens. Images were acquired in two channels: green channel with excitation at 488 nm and emission at 512 nm; red channel with excitation at 561 nm and emission at 597 nm. For both channels we used 18% laser power and 8 ms exposure. The illumination light-sheet was the Sinc3 beam with length 15 μm, thickness 650 nm and no side lobes. The volume size was 2048×448×57 pixels or 296.94×64.96×8.12 μm with isotropic pixel size 145 nm after coverglass transformation. Images were saved with bit depth 16 bits. For each region, 93 frames were imaged with frame rate 3.26 s per volume for total 5 min. For LLSM data processing, the Lattice Lightsheet 7 Processing Module on ZEN Blue was used for deconvolution, deskew, and cover glass transformation. Further processing is then done using MitoGraph and MitoTNT.

[3] = system: mitochondrial network in hiPSCs; test: Fission/fusion preference with respect to fragment size (normalized network fragment size difference); format: cell-based, human; conditions: hiPSCs with disrupted microtubules, vs DMSO control
Protocol: To detect fission and fusion events in the network, a sliding-window approach is applied to identify nodes that undergo persistent structural changes as opposed to transient segmentation variations. First, the fragment indices for each node are recorded for the half win size frames before and after the current frame, to form the fragment list. Second, for each network edge, the fragment lists for the connected nodes are compared. Fission will be declared if the fragment lists before the current frame are strictly identical, as well as the fragment lists after the current frame are strictly non-overlapping. Since fusion events can be considered as fission events reversed in time, the opposite criterion is used for fusion detection. In the case that multiple remodeling nodes are located in proximity (less than 5 edges away), the nodes are grouped into a single fission/fusion site. At last, the center of the sliding window is moved to the next frame and the computation is iterated.
To provide mechanistic insights into network remodeling, the motility between randomly selected nodes and nodes undergoing fission and fusion was compared. […] Based on node tracking, each individual mitochondrial network fragment can be tracked as shown in FIG. 17C and the selectivity of fission and fusion events recorded in terms of fragment size. […]

[4] = system: mitochondria networks in cells; test: Distribution of graph size ratio for fission/fusion events (preliminary 4D network tracking); format: cell-based; conditions: microtubule-disrupted cells vs DMSO control cells
Protocol: Preliminary results. 4D mitochondrial network tracking and fission/fusion statistics analysis indicate a selection bias in fission and fusion reaction in normal cells, which is not present when cells are treated with nocodazole. FIGS. 3A and 3B show data plots depicting a distribution of graph size ratio for fission/fusion events. Depicted is the normalized mitochondria fragment size immediately after or before fission or fusion events, respectively. Graph size ratio for a particular mitochondria undergoing fission/fusion computed as the size of the mitochondria network normalized by the total size of all mitochondria networks involved. Values close to 0 and 1 correspond to small and large mitochondria relative to the total size. The metric is calculated and plotted for every fragment undergoing detected fission/fusion events. FIGS. 3A and 3B illustrate histogram bars and gaussian-smoothed curves for fission and fusion. The gaussian-smoothed curves 310 and 330 are for fission and the gaussian-smoothed curves 320 and 340 are for fusion.

[5] = system: mitochondrial network in hiPSCs; test: Mitochondrial network motility and motion correlation analysis by node tracking; format: cell-based, human
Description: To measure the network motility of the mitochondrial network, mean-square-displacements (MSDs) vs. time delay curves are computed following previous works. The node ensemble averaged MSDs are plotted for control and oligomycin (See FIGS. 24A and 24B). The MSDs for single tracks are plotted for control and oligomycin (See FIGS. 24C and 24D). Around 80% of the nodes have a coefficient of determination for linear fit greater than 0.8 (see FIG. 15F). To map diffusivity onto mitochondrial nodes, the network nodes are firstly chosen at a center frame. Next, the node track coordinates 10 frames before and 10 frames after the center frame are collected. In a last step, the MSDs are computed at various time delays in this time window to determine the diffusivity of each node.
To compute vector correlation, the displacement vector is firstly obtained for a selected node at a selected frame. Next, the vector correlation is computed, as well as the vectors for the selected node at timepoints 1 frame before and after the selected frame. The vector correlation is computed between this vector and vectors for the nodes directly connected to it and given by the dot product of two vectors, divided by the square of the norm of the longer vector. The final correlation value for the selected node at the selected time is reported as the average of these two values.
To further investigate network branch motility, tracking vectors correlated between adjacent nodes on the same segment, and between the same node at consecutive frames. […] In contrast, temporal correlation between frames is predominantly zero (random motion) to slightly negative (oscillating motion), while interspersed with short period of positive values (directional motion) as shown in FIG. 16E. […] In FIG. 16F, the correlation along skeleton 1610 and the correlation in time 1620 are shown. The ATP synthase inhibitor oligomycin that induces mitochondrial fragmentation was employed to investigate if motion correlation findings are dependent upon network morphologies as shown in FIGS. 16G and 16H. […]

Row | SMILES | average reachability of network nodes [1] | mean degree difference (DD) [2] | temporal intersection (TI) [2] | asymmetric fission/fusion events [3] | distribution of graph size ratio for fission/fusion events (selection bias) [4] | motility of drug induced fragments ([5]; vs DMSO control) | spatial motion correlation (along skeleton) ([5]; vs control) | temporal motion correlation (between frames) ([5]; vs control)
1 | COc1cc(-n2c(=S)[nH]c3ccccc3c2=O)c(Cl)cc1Cl [mdivi-1] | 0.35 |  |  |  |  |  |  | 
2 | COC(=O)Nc1nc2ccc(C(=O)c3cccs3)cc2[nH]1 [nocodazole] | 0.29 | did not induce drastic changes | did not induce drastic changes | less pronounced but preserved; also recorded: a decrease in asymmetric fission/fusion | not present; also recorded: flatter distribution |  |  | 
3 | CC[C@H]1/C=C/C=C/C[C@@H](C)[C@H](O)[C@@](C)(O)C(=O)[C@@H](C)[C@H](O)[C@@H](C)C(=O)[C@@H](C)[C@H](O)[C@@H](C)/C=C/C(=O)O[C@@H]2[C@H](C)[C@H](CC1)O[C@]1(CC[C@H](C)[C@H](C[C@@H](C)O)O1)[C@H]2C [oligomycin] | 0.64 | 0.52 | 0.44 |  |  | move considerably faster compared to control | dropped | remains similar

Reference: US20250200763A1, “4D FLUORESCENCE MICROSCOPY ORGANELLE NETWORK TRACKING” (THE REGENTS OF THE UNIVERSITY OF CALIFORNIA, priority 2022, published 2025)
